Measured values published in US3982999A, “Complexing cresolase with copper chelating agents” (priority 1974, dated 1976).
Values joined by “and” are separate entries in the source; they are usually repeats but may differ in a detail not shown here. Identical values can stand only once. Like-named read-outs stand apart in the source and are kept apart here.

Legend:
L1210 mouse leukemia = assay: Antileukemia activity against L1210 mouse leukemia in BDF1 mice (survival); format: in vivo; details: for T/C (test group mean day of death / control group mean day of death): Day 1 through Day 9, uninjected control group
Experimental: (§1) Male BDF1 mice, initial weight ca 23g, were inoculated i.p. on Day 0 with 10^5 L1210 cells per mouse. Treatment was initiated on Day 1 and continued through Day 9. Animals were weighed on days 1 and 5 to assess toxicity. Agents were prepared fresh daily as follows: 8-OH-quinoline (Eastman Chemical Co.) was dissolved in a small volume of absolute ethanol and diluted to the appropriate concentration with 0.1M sodium phosphate buffer, pH 6.5 (final ethanol concentration: 3%). Dilutions were made in buffer containing 3% ethanol. Tyrosinase^2 (Sigma Chemical Co., lot 121C-9530) was dissolved in buffer containing 3% ethanol. (Previous studies had shown that 3% ethanol had no effect on the activity of the enzyme) For the combination, 8-OH-quinoline was again dissolved in a small volume of ethanol, but diluted with 0.1M sodium phosphate buffer; pH6.5, containing tyrosinase in the appropriate concentration. Dilutions were made in buffer containing both 3% ethanol and tyrosinase so that both ethanol and tyrosinase concentrations remained constant as the 8-OH-quinoline concentration decreased. The combination was "incubated" at room temperature for 30 minutes before administration. The radio of enzyme to substrate administered in the combination was varied from 1:1 to 1:.125.
Actual doses administered and results comprise Table IV. Results are expressed as the ratio (T/C) of the test group mean day of death to control group mean day of death.

[1] = Day 1-5 weight change of L1210-bearing mice to assess toxicity; format: in vivo
Experimental: as §1

[2] = Preliminary toxicity study, single intraperitoneal dose; details: mouse, in vivo, ip; single intraperitoneal (i.p.) dose, suspended in Klucel (0.3% hydroxy-propylcellulose), male BDF1 mice
L1210 leukemia cells [3] = assay: 3-day L1210 cell growth inhibition assay in tyrosine-phenylalanine depleted medium; format: cell-based, mouse; details: Tyrosine and Phenylalamine Depleted Medium, 0.15 g/ml 8-Hydroxyquinoline
Source text: (§2) In this experiment, we further investigated the effects of tyrosinase on L1210 cell growth with two media; 1) complete or regular medium and; 2) tyrosine-phenylalanine depleted medium.
(§3) ^a 3-day cell growth inhibition assay.

[4] = tested on: Tyrosinase (polyphenol oxidase) isolated from mushrooms; details: control 0.0433
Experimental: ^a Tyrosinase (polyphenol oxidase) isolated from mushrooms and purchased from Sigma, St. Louis, Mo. The reaction was carried out in 2 quartz curvette containing 1 ml of phosphate buffer (0.5 M, pH 6.5) 1 ml of substrate (1 mM L-tyrosine in H2 O), 0.5 ml of solvent or drug, 0.5 ml H2 O (for blank), 0.4 ml H2 O and 0.1 ml of enzyme (0.5 mg/ml) for the reaction tube. The reaction was started by the addition of enzyme and the change of optical density (Δ O.D.) was determined at 1 min intervals.

L1210 leukemia cells [5] = assay: 3-day L1210 cell growth inhibition assay in culture (complete or regular medium); format: cell-based, mouse; details: for L1210 Cell Growth (cell concentration day 3 - day 0): control growth 147.9
Source text: as §2, §3
^b Cell Growth = (cell concentration day 3 - cell concentration day 0

[6] = 8-Hydroxyquinoline 0.15 μg/ml, Tyrosinase 0

Which “T/C (test group mean day of death / control group mean day of death)” value (L1210 mouse leukemia; 2.5 mg/kg/day) does the source give for `Oc1cccc2cccnc12` [8-Hydroxyquinoline, 8-hydroxyquinoline] here?
Its value is “.95”.

And the “T/C (test group mean day of death / control group mean day of death)” value (L1210 mouse leukemia; 5 mg/kg/day)?
Its value is “.92”.

What about the “T/C (test group mean day of death / control group mean day of death)” value (L1210 mouse leukemia; 10 mg/kg/day) of the same compound?
Its value is “.97”.

And the “T/C (test group mean day of death / control group mean day of death)” value (L1210 mouse leukemia; 20 mg/kg/day)?
The value was “.97”.

And the “Mean day of Death (I.S.D.)” value (L1210 mouse leukemia; mouse, in vivo, listed as 8-OH-quinoline)?
The value was 9.5 ± 0.8 days and 9.5 ± 0.4 days and 9.0 ± 0.6 days and 9.3 ± 0.8 days.

And the “Day 1-5 Weight Change” value ([1]; 2.5 mg/kg/day)?
The value was -0.3 gm/mouse.

And the “Day 1-5 Weight Change” value ([1]; 5 mg/kg/day)?
The value was “+1.4 gm/mouse”.

And the “Day 1-5 Weight Change” value ([1]; 10 mg/kg/day)?
Its value is “+1.0 gm/mouse”.

And the “Day 1-5 Weight Change” value ([1]; 20 mg/kg/day)?
The value was “+1.0 gm/mouse”.

What about the LD50 [2] of the same compound?
Its LD50 is roughly 75 mg/kg.

And the “Inhibition (%)” value (L1210 leukemia cells [3]; two experiments)?
The value was 45.6% and 52.2%.

What about the “Cell × 10^3 /ml” value (L1210 leukemia cells [3]; two experiments (controls 102.5, 62.1)) of the same compound?
Its value is 55.8 × 10^3 /ml and 29.7 × 10^3 /ml.

What about the “Reaction Rate” value ([4]; 8-Hydroxyquinoline 10 μg/ml) of the same compound?
Its value is 0.0353 Δ OD/Min.

And the “Reaction Rate” value ([4]; 8-Hydroxyquinoline 50 μg/ml)?
The value was 0.0160 Δ OD/Min.

And the “Reaction Rate” value ([4]; 8-Hydroxyquinoline 200 μg/ml)?
Its value is 0.0007 Δ OD/Min.

And the “L1210 Cell Growth (cell concentration day 3 - day 0)” value (L1210 leukemia cells [5]; 8-Hydroxyquinoline 0.1 μg/ml, Tyrosinase 0)?
Its value is 126.8 × 10^3 cells/ml.

And the “L1210 Cell Growth % Inhibition (%I)” value (L1210 leukemia cells [5]; [6])?
The value was 61.9%.

What about the “L1210 Cell Growth (cell concentration day 3 - day 0)” value (L1210 leukemia cells [5]; [6]) of the same compound?
The value was 56.4 × 10^3 cells/ml.

What about the “L1210 Cell Growth (cell concentration day 3 - day 0)” value (L1210 leukemia cells [5]; 8-Hydroxyquinoline 0.2 μg/ml, Tyrosinase 0) of the same compound?
The value was 7.4 × 10^3 cells/ml.

What about the “Inhibition (%)” value (L1210 leukemia cells [5]; Completed Medium, 0.15 g/ml 8-Hydroxyquinoline, two experiments) of the same compound?
Its value is 12.1% and 21.8%.

What about the “Cell × 10^3 /ml” value (L1210 leukemia cells [5]; Completed Medium, 0.15 g/ml 8-Hydroxyquinoline, two experiments (controls 391.9, 358.5)) of the same compound?
The value was 344.5 × 10^3 /ml and 280.2 × 10^3 /ml.

What about the inhibition at 0.1 µg/mL (L1210 leukemia cells [5]; Mus musculus, L1210, 8-Hydroxyquinoline 0.1 μg/ml, Tyrosinase 0, read-out: L1210 Cell Growth % Inhibition (%I)) of the same compound?
The inhibition at 0.1 µg/mL was 14.3%.

And the inhibition at 0.15 µg/mL (L1210 leukemia cells [5]; Mus musculus, L1210, 8-Hydroxyquinoline 0.15 μg/ml, Tyrosinase 0, read-out: L1210 Cell Growth % Inhibition (%I))?
The inhibition at 0.15 µg/mL was greater than 60%.

What about the inhibition at 0.2 µg/mL (L1210 leukemia cells [5]; Mus musculus, L1210, 8-Hydroxyquinoline 0.2 μg/ml, Tyrosinase 0, read-out: L1210 Cell Growth % Inhibition (%I)) of the same compound?
Its inhibition at 0.2 µg/mL is 95%.
